Assay in all cases: growth of human tumour cells (NCI), 48 h
In experiment [1] the test system is HOP-92 NSCLC.
The test system of experiment [2] is SNB-75 CNS.
The subject of experiment [3] is SK-MEL-28 melanoma.
The test system of experiment [4] is SF-539 CNS.
Experiment [5] deals with RXF 393 renal.
Experiment [6] concerns SF-295 CNS.
Experiment [7] concerns NCI-H460 lung.
Experiment [8] has as its system KM12 colon.
Experiment [9] has as its system MOLT-4 leukemia.
The test system of experiment [10] is UACC-257 melanoma.

Molecules are shown by their SMILES.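 48-hour exposure; five concentrations; linearly interpolated endpoints. GI50 is the concentration that inhibits growth by half. TGI: concentration producing complete growth inhibition.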

As for `CCN(CC)CCCNc1ncc(C)c2[nH]c3ccncc3c12`, the TGI in experiment [1] worked out at 26.3 µM; in experiment [2], 27.7 µM; in experiment [3], 27.4 µM; in experiment [4] it was 20.9 µM; in experiment [5], 23 µM; in experiment [6] it was 29.7 µM. Besides, the TGI is 15.6 µM in experiment [7], 42 µM in experiment [8], 18.4 µM in [9] and 18.5 µM in experiment [10].
For the compound `Nc1nc(Cl)cc(OCC2(CO)CC(OCc3ccccc3)C2)n1` (configuration not stated), the GI50 in experiment [1] is 49900 nM; in experiment [2], 27900 nM; in [3], 96.9 µM; in experiment [5], 48.6 µM; in experiment [6] it was 50.1 µM; in [7] it was 66.3 µM. Moreover, the GI50 in experiment [8] was 55.5 µM; in [9], 22 µM; in [10] it was 49.5 µM. Moreover, in [9], the TGI worked out at 95.5 µM.
As to `COc1cc(/C=C/c2cc(/C=C/c3ccc(O)c(OC)c3)nc(N)n2)ccc1O`, the GI50 in experiment [1] is 1260 nM; in [2], 1260 nM; in [3], 1.85 µM; in [4], 2050 nM; in experiment [6], 1.93 µM; in [7] it was 2.05 µM. The GI50 in experiment [8] is 1.63 µM; in [9] it was 1.01 µM; in experiment [10], 1.53 µM. The TGI stood at 5.19 µM in [1]; 3.34 µM in [2]; 4.53 µM in experiment [3]; 5.73 µM in [4]; 4.54 µM in [6]; 5.2 µM in experiment [7]. In addition, the results for the TGI in [8], in [9] and in experiment [10] were 3.32 µM, 5.19 µM and 3.5 µM, respectively.
Take `O=[N+]([O-])c1ccccc1NC1c2ccccc2Oc2ccccc21`: the GI50 in experiment [1] is 4220 nM; in experiment [2], 2940 nM; in experiment [3], 4.85 µM; in [4], 3270 nM; in experiment [5], 3.35 µM; in experiment [6], 4.45 µM. The GI50 in [7] is 3.87 µM; in experiment [8], 4.34 µM; in experiment [9], 5.03 µM; in experiment [10] it was 7.2 µM. For the same compound, the TGI in experiment [1] is more than 100 µM; in [2], 38.6 µM; in [3], more than 100 µM; in experiment [4], more than 100 µM; in experiment [5], 16.6 µM; in experiment [6] it was more than 100 µM. Also, the TGI in experiment [7], in experiment [8], in [9] and in experiment [10] was more than 100 µM throughout.
For `COC(=O)c1cccc(N[C@@H]2c3cc4c(cc3C(c3cc(OC)c(O)c(OC)c3)[C@H]3C(=O)OCC32)OCO4)c1` (some centres not stated), the TGI in experiment [1] is 7.14 µM; in experiment [2], more than 21 µM; in experiment [3], more than 100 µM; in experiment [4] it was 3.64 µM; in [5], 15.9 µM; in [6] it was 5.96 µM. Besides, the TGI in experiment [7] was found to be 2.24 µM; in experiment [8], 10.2 µM; in [9], 1.36 µM; in experiment [10] it was 7.82 µM.
In the case of `N=c1c2c(=S)n(-c3ccccc3)c(=S)n(-c3ccccc3)c2nc(SCCCN2CCN(c3cccc(Cl)c3)CC2)n1-c1ccccc1`, the TGI in [1], in [2], in [3], in experiment [4], in experiment [5] and in [6] was more than 100 µM throughout. The TGI in [7], in experiment [8], in experiment [9] and in experiment [10] was more than 100 µM throughout.
Turning to `O=C(O)CNc1ccc(C(=O)O)cc1`, the TGI in [1], in experiment [2], in experiment [3], in experiment [4], in [5] and in [6] was more than 100 µM in each case. In addition, the TGI in [7], in experiment [8], in [9] and in experiment [10] was more than 100 µM each time.
Regarding `Cc1ccc([N+](=O)[O-])cc1S(=O)(=O)Nc1ccc(C2=NNC(c3ccccc3O)C2)cc1` (configuration not stated), the TGI is more than 100 µM in experiment [1]; more than 100 µM in [2]; more than 100 µM in [3]; more than 100 µM in [4]; 40.5 µM in experiment [5]; 90.9 µM in [6]. For the same compound, the TGI in experiment [7] was 80.6 µM; in experiment [8], 76.7 µM; in experiment [9], 96.3 µM; in experiment [10] it was more than 100 µM.
On to `CCCCCCCC/C=C\CCCCCCCC(=O)O`, for which the TGI in experiment [1] was more than 5 µM; in [2], 29.6 µM; in experiment [3], 329 µM; in experiment [4] it was 184 µM; in experiment [5] it was 168 µM; in experiment [6], 176 µM. Further, the TGI in experiment [7] is 192 µM; in experiment [8] it was more than 500 µM; in [9] it was 331 µM; in [10], 201 µM.
On to `CCNc1nnc(-c2nsc3ccccc23)s1`, for which the TGI in [1] was more than 100 µM; in experiment [2], 36.1 µM; in experiment [3] it was more than 100 µM; in [4] it was more than 100 µM; in experiment [5], more than 100 µM; in experiment [7] it was 88.6 µM. Moreover, the TGI in experiment [8], in experiment [9] and in experiment [10] was more than 100 µM in each case.
In the case of `CC(=O)Oc1ccc2c(c1)oc1c3ccc(OC(C)=O)cc3n(C)c(=O)c21`, the TGI in experiment [1] is more than 100 µM; in [2] it was 4.16 µM; in experiment [3], more than 100 µM; in experiment [4], more than 100 µM; in [5], more than 100 µM; in experiment [6] it was more than 100 µM. Moreover, the TGI in experiment [7] was more than 100 µM; in experiment [8], 20.6 µM; in [9], more than 100 µM; in [10] it was more than 100 µM.
As for `O=C1C=CC2=[N+]([O-])C(c3ccccc3)(c3ccccc3)C(=Nc3ccccc3)C2=C1`, the TGI came to 3.48 µM in experiment [1]; 8.74 µM in experiment [2]; 19.5 µM in experiment [4]; 3.04 µM in experiment [5]; 27.7 µM in [6]; 34.4 µM in [7]. Further, the TGI in experiment [10] was 4.11 µM.
For `Cc1cc(C)c2c(c1)CC1(Cc3c(C)ccc(C)c3C1=O)C2=O` (configuration not stated), the TGI in [1], in experiment [2], in [3], in experiment [4], in experiment [5] and in experiment [6] was more than 100 µM in each case. For the same compound, the TGI in [7], in experiment [8], in experiment [9] and in experiment [10] was more than 100 µM throughout.
Take `N=C(N)c1ccc(-c2ccc(-c3ccccc3)s2)cc1`: the GI50 was 1550 nM in [1], 1.67 µM in [3], 1630 nM in [4] and 1.72 µM in [5]. The TGI worked out at 3.34 µM in experiment [1], 3.13 µM in experiment [3], 3 µM in experiment [4] and 3.39 µM in experiment [5].

For the origin of these results see PubChem BioAssay (NCI).
